Reference: patent publication US20010016605A1, “Use of a phenylurea derivative for controlling crown and root rot in beet” (priority 2000, published 2001)

Tested on: Rhizoctonia solani AG 2-2
Test: Inhibition of the growth of Rhizoctonia solani AG 2-2 on nutrient medium / protective
Format: cell-based
Conditions: 0% = untreated control, 100% = complete inhibition of fungal growth, evaluation after 2 to 14 days
Method: Inhibition of the growth of Rhizoctonia solani AG 2-2 (anastomosis group 2-2)/protective
The substances are tested on suitable nutrient media for their activity against Rhizoctonia solani AG 2-2. To this end, the stated amount of active compound is in each case added to and intensively mixed with the stated amount of nutrient medium. The mixture in question is transferred into a culture vessel, inoculated with Rhizoctonia solani AG 2-2 and incubated at a suitable temperature. At certain intervals, the growth of the microorganism is assessed.
A nutrient medium of the following composition is used:
These components are dissolved in 1000 ml of distilled water and autoclaved at 121° C. for 30 minutes. The active compound at the stated concentration is then mixed with the nutrient medium. However, in all cases solvent and nutrient medium are present in the following weight ratio:
These mixtures are poured into Petri dishes having a diameter of 9 cm and a volume of 10 ml. Once the nutrient substrate has cooled and solidified, it is inoculated in the centre of the Petri dish with an inoculation piece having a diameter of 0.5 cm.
Evaluation is carried out after 2 to 14 days—depending on the rate of growth of the microorganism. The effect on the development of the culture is determined by comparing the individual test samples. 0% means an efficacy which corresponds to that of the untreated test variant. In contrast, an efficacy of 100% means complete inhibition of fungal growth.

[1] = active compound application rate 0.1 ppm in nutrient medium
[2] = active compound application rate 1 ppm in nutrient medium
[3] = active compound application rate 10 ppm in nutrient medium
[4] = active compound application rate 100 ppm in nutrient medium

Row | Structure (SMILES) | Efficacy in % [1] [%] | Efficacy in % [2] [%] | Efficacy in % [3] [%] | Efficacy in % [4] [%]
1 | CO/C=C(/C(=O)OC)c1ccccc1Oc1cc(Oc2ccccc2C#N)ncn1 [azoxystrobin] | 45 | 48 | 59 | 64
2 | Cc1cc(O)no1 [hymexazol] | 7 | 5 | 8 | 35
3 | O=C(Nc1ccccc1)N(Cc1ccc(Cl)cc1)C1CCCC1 [pencycuron, N-4-chloro-benzyl-N-cyclopentyl-N′-phenylurea] | 70 | 98 | 100 | 100
